Test system: CFA induced hypersensitivity in rat
Assay: CFA induced hypersensitivity in rat assessed using weight bearing method
Format: in vivo
Settings: 10 mg/kg, 24 hours post CFA, 1, 2 and 4 hours post treatment
Description: Intraplantar injection of Complete Freunds adjuvant (CFA) causes an inflammatory reaction which induces hypersensitivity and oedema, and mimics some aspects of clinical inflammatory pain. These effects can be investigated using equipment to measure weight bearing and plethysmometer.
Naive rats distribute their body weight equally between the two hind paws. However, when the injected (left) hind paw is inflamed and/or painful, the weight is re-distributed so that less weight is put on the affected paw (decrease in weight bearing on injured paw). Weight bearing through each hind limb was measured using a rat incapacitance tester (Linton Instruments, UK).
Rats were placed in the incapacitance tester with the hind paws on separate sensors and the average force exerted by both hind limbs was recorded over 4 seconds.
Base line weight bearing and paw volume readings were taken and hypersensitivity was induced via injection of CFA (Baseline weight bearing and paw volume recordings were taken prior to induction of insult. Inflammatory hypersensitivity was induced by intraplantar injection of CFA (100 μL of 1 mg/mL solution) intraplantar to the rats left hind paw.
Animals (Male, Sprague Dawley Rats (Charles River, UK), 212-260 g) were ranked and randomised to treatment groups according to the weight bearing CFA window in a Latin square design. […]

SMILES: COc1ccc2c(c1)c(CC(=O)O)c(C)n2C(=O)c1ccc(Cl)cc1 [Indomethacin, reference compound]
- hypersensitivity response (weight bearing): significantly inhibited

Source: US11136325B2, “Pyrrolopyrimidine and pyrrolopyridine derivatives” (GALAPAGOS NV, priority 2017, dated 2021)
